Laboratory results as given in US7166616B2, “Substituted alkanoic acids” (Aventis Pharma Limited, priority 2000, dated 2007).

melting point [°C] | Structure (SMILES)
123 to 126 | Cc1ccccc1Nc1nc2ccc(CC(=O)Nc3ccc(C4(CC(=O)O)CCCC4)cc3)cc2o1 [Example 1, (1-{4-[2-(2-o-Tolylamino-benzoxazol-6-yl)-acetylamino]-phenyl}-cyclopentyl)-acetic acid]
223 to 226 | COc1cc(CC(=O)Nc2ccc(C3(CC(=O)O)CCCC3)cc2)ccc1NC(=O)Nc1ccccc1C [Example 2, [1-{4-[2-[3-Methoxy-4-[3-o-tolyl-ureido]-phenyl]-acetylamino]-phenyl}-cyclopentyl]-acetic acid]
